# Values joined by “and” are separate entries in the source; they are usually repeats but may differ in a detail not shown here. Equal entries are not always repeated. Where two headings read alike, the source gives them in different places.
# Tests used:
# PKAC-beta = PKAC-beta (Homo sapiens, UniProt P22694); experiment: KINOMEscan select kinase screen; assay type: binding; conditions: two experiments
# Description: (§1) Kinase Assays. The kinase inhibition assays were conducted by DiscoverX on a platform assay by Ambit BioSciences as described previously 16,17. FKK6 was screened at a single concentration of 10 […]
# (§2) The assays measure a compound’s ability to inhibit binding of a canonical ligand substrate, with 0% activity of control corresponding to full inhibition and 100% activity of control to no inhibition. […]
# PKAC-alpha = PKAC-alpha (Homo sapiens, UniProt P17612); experiment: KINOMEscan select kinase screen; assay type: binding; conditions: two experiments
# Description: as §1, §2
# Cyp3a11 = experiment: PXR target gene expression in pxr -/- mice after FKK6 gavage; assay type: in vivo, mouse; conditions: pxr-/- (PXR knockout), mouse, oral, 500 μM, 5 doses (60 h), mean
# Description: (§3) (Scheer et al, 2010) were administered 10% DMSO (n = 3) or FKK6 (n = 3) in 3 or 5 doses, with each dose interval of 12 h. Each gavage dose volume was 100 μl. 2–4 h after the dosing period, mice were sacrificed, and tissues were harvested for further analysis. The mouse studies were performed three independent times over an 18‐month period. All purchased mice were acclimatized in the Einstein vivarium for ~ 2 weeks before experiments started. […]. The room temperature was maintained at 25 ± 2°C with 55 ± 5% humidity. All studies were approved by the Institute of Animal Studies at the Albert Einstein College of Medicine, INC (IACUC # 20160706, 20160701 and preceding protocols), and specific animal protocols were also approved by additional protocols (IACUC# 20170406, 20170504) and Animal Care and Use Review Office (ACURO) of the US Army Medical Research and Materiel Command (PR160167, W81XWH‐17‐1‐0479). […]
# (§4) Mouse small, large intestine and liver samples were collected and total RNAs were […]
# (§5) isolated. […] Each tissue PCR was […]
# (§6) repeated in quadruplicate. The expression was normalized to internal control, GAPDH. ( b,d) The histograms show mean (95 %CI) values, c, mean (SD) and two way ANOVA followed with Tukey's post hoc test. The entire experiment was repeated n = 3 for reproducibility. The data shown is one representative experiment .
# mdr1 = experiment: as above; assay type: in vivo, mouse; conditions: pxr-/- (PXR knockout), mouse, oral, 500 μM, 5 doses (60 h), mean
# Description: as §3, §4, §5, §6
# pxr -/- mice = experiment: as above; assay type: in vivo, mouse; conditions: for Cyp3a11 fold expression / mdr1 fold expression: Fig 4e
# Description: as §3, §4, §5, §6
# C57BL/6 mice = experiment: 10 Day (acute) toxicity study in mice; assay type: in vivo, mouse
# Description: The LS180 cell line was used to assess cell cytotoxicity using the MTT (3‐(4,5‐dimethylthiazolyl‐2)‐2,5‐diphenyltetrazolium bromide) assay as previously described (Bartonkova et al, 2015, 2016). […] FKK6 was selected as a lead compound for assessment, given that it had the more favorable PXR‐selective ligand activity in cells. […] The mice were gavaged for ten consecutive days and necropsied on day 12 with the collection of blood (serum). […] Similarly, a 30‐day toxicity test was conducted in mice using FKK6 at an oral dose of 200 μM in 0.8% DMSO per day. We chose this dose to stay within the safe DMSO dose administered to mice over 30 days. On day 30, we necropsied the mice and collected blood (serum).
# hPXR mice = experiment: DSS-induced acute colitis in hPXR mice; assay type: in vivo, mouse
# Description: For these studies, 7‐ to 8‐week‐old female (DeVoss & Diehl, 2014) hPXR (mice expressing the human PXR gene) and pxr ^−/− mice (C57BL/6 background) were bred and each genotype was separated into two treatment groups using a random allocation method via coin toss—(i) n = 3 control (0.8% DMSO in 100 μl drinking water) and (ii) n = 3 FKK6 (200 μM (0.4 mg/kg/day) in 0.8% DMSO in 100 μl drinking water) administered once per day via oral gavage, and via intrarectal gavage for a total of 10 consecutive days The dose was chosen based on the extrapolation of the total dose delivered over 10 days to mice (~ 4 mg/kg), which is equivalent to that delivered to mice for determining target gene expression over 3–5 doses (3–5 mg/kg). […] Fecal pellets were collected prior to the initiation of the treatment protocol. All mice were starved overnight (12 h) to allow for smooth intrarectal delivery; however, the mice were allowed to feed ad libitum during the day. After 10 days, the mice were sacrificed and organs/tissues/feces harvested for further study. Prior to necropsy, mice were administered FITC‐dextran, and mouse serum was collected for the FITC‐dextran assay as previously described (Vetizou et al, 2015). The experimenter was not blinded to treatment allocation; however, the pathologist (KS) evaluating histologic scores was blinded to treatment allocation. All studies were approved by the Institute of Animal Studies at the Albert Einstein College of Medicine, INC (IACUC # 20160706 and preceding protocols). Colitis scoring was performed as previously published, and post‐examination masking was conducted (Kim et al, 2012; Meyerholz & Beck, 2018).
# For RT–qPCR of colon tissue for cytokine expression data, new experiments were conducted with 3% DSS and the identical FKK6 dose (n = 3 mice/group) and scheduled as above. RT–qPCR was performed using PowerUp™ SYBR® Green Master Mix (A25741, Thermo Fisher Scientific) and primers specific for IL‐10, TNF‐α, TNFR2, and […]. Each target gene was analyzed in quadruplicate. Normalizing controls included GAPDH (used to illustrate data) and TBP.
# [1] = FKK6 200 μM, day 10, individual mice
smiles,measurement,setting,value
"O=C(c1ccncc1)c1cc2ccccc2n1S(=O)(=O)c1ccccc1 [FKK5, (1-(phenylsulfonyl)-1H-indol-2-yl)(pyridin-4-yl)methanone]",%Ctrl,"PKAC-beta; 10000 nM, 10 µM",100 %Ctrl and 57 %Ctrl
same,%Ctrl,"PKAC-beta; 25000 nM, 25 µM",92 %Ctrl and 48 %Ctrl
same,remaining binding at 10 µM,"PKAC-alpha; 10000 nM, read-out: %Ctrl",100%
same,%Ctrl,"PKAC-alpha; 25000 nM, 25 µM",95 %Ctrl
same,remaining binding at 25 µM,"PKAC-alpha; 25000 nM, read-out: %Ctrl",85%
C#CCC(O)(c1ccncc1)c1cc2ccccc2n1S(=O)(=O)c1ccccc1 (stereo not drawn) [FKK6],"fold induction at 60 h, 500 µM","Cyp3a11; large intestine, × DMSO, read-out: Cyp3a11 fold induction, Large Intestine",0.36
same,"fold induction at 60 h, 500 µM","Cyp3a11; liver, read-out: Cyp3a11 fold induction, Liver",1.54
same,"fold induction at 60 h, 500 µM","Cyp3a11; small intestine, × DMSO, read-out: Cyp3a11 fold induction, Small Intestine",0.25
same,"fold induction at 60 h, 500 µM","mdr1; large intestine, read-out: mdr1 fold induction, Large Intestine",0.71
same,"fold induction at 60 h, 500 µM","mdr1; liver, read-out: mdr1 fold induction, Liver",1.22
same,"fold induction at 60 h, 500 µM","mdr1; small intestine, read-out: mdr1 fold induction, Small Intestine",1.16
same,PXR target gene (mdr1) expression across organs,pxr -/- mice; 36 h and 60 h,no effect
same,Cyp3a11 fold expression,pxr -/- mice; Large Intestine,0.69 fold and 0.64 fold and 0.66 fold
same,mdr1 fold expression,pxr -/- mice; Large Intestine,0.87 fold and 0.67 fold and 0.93 fold
same,Cyp3a11 fold expression,pxr -/- mice; Liver,0.84 fold and 1.18 fold and 1.42 fold
same,Cyp3a11 fold expression,pxr -/- mice; Small Intestine,0.98 fold and 0.96 fold and 1.09 fold
same,mdr1 fold expression,pxr -/- mice; Small Intestine,0.52 fold and 0.37 fold and 0.63 fold
same,"target gene expression levels (cyp3a11, mdr1) decrease vs DMSO","pxr -/- mice; mouse, in vivo",≤ 1.5 fold
same,serum chemistry profiles,"C57BL/6 mice; 500 μM in 10% DMSO per day, gavage, ten days",did not alter
same,tissue pathology vs vehicle,"C57BL/6 mice; 500 μM in 10% DMSO per day, gavage, ten days, necropsy day 12",did not significantly impact tissue pathology
same,Histopathology: Kidney,"C57BL/6 mice; 10 day, n=6",Degenerative tubules/vacuoles (rare) (n=6)
same,Histopathology: Liver,"C57BL/6 mice; 10 day, n=6",Mild periportal inflammation (n=5)
same,Histopathology: Lung,"C57BL/6 mice; 10 day, n=6",Mild leukocytes (n=2)
same,Histopathology: Spleen,"C57BL/6 mice; 10 day, n=6",Mild lymphoid hyperplasia (n=2)
same,colon tissue IL-10 mRNA,"hPXR mice; 3% DSS, FKK6 vs controls",significant increase
same,colon tissue TNF-α mRNA,"hPXR mice; 3% DSS, FKK6 vs controls",decrease
same,colon tissue TNFR2 mRNA,"hPXR mice; 3% DSS, FKK6 vs controls",decrease
same,colon tissue IL-17f mRNA,"hPXR mice; 3% DSS, FKK6 vs vehicle",significant reduction
same,fecal lipocalin 2,hPXR mice; FKK6 200 μM,only a trend in the reduction
same,serum FITC-dextran,hPXR mice; FKK6 200 μM,only a trend in the reduction
same,% weight loss from baseline (day 1 vs. day 10),"hPXR mice; FKK6 200 μM oral gavage plus intrarectal, once daily 10 days, individual mice",significantly reduced weight loss and 20% and 16%
same,colon length,hPXR mice; [1],increased colon length and 5.2 cm and 5.6 cm and 5.1 cm
same,inflammation score,hPXR mice; [1],substantially decreased and 3 and 5

# Reference: article PMC7136958, “Targeting the pregnane X receptor using microbial metabolite mimicry” (EMBO Molecular Medicine, 2020)
